From patent US20250195452A1, “ER-BETA ESTROGENIC COMPOUNDS AND METHODS OF USE” (laterion, Inc., priority 2022, published 2025)
Entries after “also recorded” stand apart in the source; their conditions may differ.

Tests used:
[1] = target: T1, ERα (Homo sapiens, UniProt P03372); assay: Luciferase activity of ligands on the activation of the NKG2E ERE in U2OS-ERα cells; assay type: cell-based; conditions: for Activity in ERα U2OS cells: indicated micromolar concentrations, 24 hours; for Activation of ERα (NKG2E ERE luciferase activity): U2OS-ERα cells
T1 construct: expressed in transfected cells; host or cells: U2OS
T1 sequence (P03372 1-595): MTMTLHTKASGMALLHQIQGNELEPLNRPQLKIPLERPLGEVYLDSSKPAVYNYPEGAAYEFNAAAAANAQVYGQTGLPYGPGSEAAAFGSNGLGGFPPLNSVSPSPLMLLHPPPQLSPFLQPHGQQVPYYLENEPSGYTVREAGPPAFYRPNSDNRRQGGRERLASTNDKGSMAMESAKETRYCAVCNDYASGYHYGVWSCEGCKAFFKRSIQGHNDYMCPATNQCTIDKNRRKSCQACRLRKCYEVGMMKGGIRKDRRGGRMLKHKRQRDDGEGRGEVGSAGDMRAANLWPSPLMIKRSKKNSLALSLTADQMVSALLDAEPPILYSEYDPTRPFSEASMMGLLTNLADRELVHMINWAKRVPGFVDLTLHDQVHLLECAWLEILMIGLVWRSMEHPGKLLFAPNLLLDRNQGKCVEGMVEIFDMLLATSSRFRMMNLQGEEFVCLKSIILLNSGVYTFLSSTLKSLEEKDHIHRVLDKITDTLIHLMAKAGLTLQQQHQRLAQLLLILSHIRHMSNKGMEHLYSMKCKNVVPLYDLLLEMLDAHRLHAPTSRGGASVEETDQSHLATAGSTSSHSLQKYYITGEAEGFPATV
Text: (§1) U2OS cells (wild type) were maintained in 5% charcoal-dextran stripped FBS.

[2] = target: T2, ERβ (Homo sapiens, UniProt Q92731); assay: Luciferase activity in U2OS cells transfected with NKG2E-TK-Luc and ERβ; assay type: cell-based; conditions: 200 nM
T2 construct: expressed in transfected cells; host or cells: U2OS
Protocol: as §1
Luciferase activity for each of the tested compounds was recorded.

[3] = tested on: GRE-TK-Luk, GR, and ERβ; assay: Luciferase activity in GRE-TK-Luc-transfected U2OS-ERβ cells with doxycycline and hydrocortisone; assay type: cell-based; conditions: HC 100 nM; compounds at 0.5, 1, 2.5 and 5 μM; doxycycline
Protocol: Example 12: Luciferase Activity in GRE-TK-Luc-Transfected U2OS-ERβ cells with doxycycline. Doxycycline-dependent U2OS cells were transfected with GRE-TK-Luk, GR, and ERβ in the presence of hydrocortisone (HC, 100 nM) alone or in combination with Liquiritigenin, A10, A13, and A15. Luciferase activity for each of the compounds at 0.5, 1, 2.5 and 5 μM concentration was recorded.

[4] = tested on: MCF-7 breast cancer cells; assay: Effects of ERβ compounds on breast cancer tumor formation (histology, FIG. 16A-B); assay type: in vivo; conditions: in comparison to estradiol
[5] = Effects of ERβ compounds on uterine weight (histology, FIG. 16A-B); assay type: in vivo; conditions: in comparison to estradiol
Text: Example 11: Effects of ERβ compounds on uterine and breast cancer cells.

T2 sequence (Q92731 whole entry): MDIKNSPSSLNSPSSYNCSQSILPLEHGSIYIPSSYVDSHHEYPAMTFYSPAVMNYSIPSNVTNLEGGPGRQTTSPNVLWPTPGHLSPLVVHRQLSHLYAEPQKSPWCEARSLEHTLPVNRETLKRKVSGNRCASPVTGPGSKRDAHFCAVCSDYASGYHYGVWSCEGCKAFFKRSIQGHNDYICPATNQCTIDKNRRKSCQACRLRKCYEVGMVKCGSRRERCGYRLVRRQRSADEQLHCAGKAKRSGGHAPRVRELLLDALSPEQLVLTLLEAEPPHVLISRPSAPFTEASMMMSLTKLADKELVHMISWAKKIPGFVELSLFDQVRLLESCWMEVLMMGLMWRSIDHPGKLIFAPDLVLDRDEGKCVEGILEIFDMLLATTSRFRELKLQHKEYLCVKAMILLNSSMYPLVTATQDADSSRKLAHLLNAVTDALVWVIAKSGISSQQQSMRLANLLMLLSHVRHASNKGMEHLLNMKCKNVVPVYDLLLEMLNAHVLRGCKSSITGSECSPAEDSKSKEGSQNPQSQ

Row | Activity in ERα U2OS cells [1] | Activation of ERβ (NKG2E-TK-Luc luciferase activity) [2] | Compound | other results
1 |  | activate ERβ | O=c1cc(-c2ccc(O)cc2)oc2cc(O)cc(O)c12 [Apigenin] | 
2 | little or no activity |  | COc1ccc(-c2coc3cc(O)ccc3c2=O)cc1O [Calycosin] | Breast cancer tumor formation ([4]; listed as IATERB6): do not increase uterine weight or cause breast cancer tumor formation; also recorded: do not increase uterine breast cancer tumor formation; Uterine weight [5]: do not increase uterine weight
3 | little or no activity |  | Oc1ccc([C@H]2COc3cc(O)ccc3C2)cc1 [Equol] | Activation of ERα (NKG2E ERE luciferase activity) ([1]; 1 μM): activate ERα
4 | little or no activity |  | O=c1c(O)c(-c2ccccc2)oc2cc(O)cc(O)c12 [Galangin] | 
5 | little or no activity |  | O=c1cc(-c2ccc(O)c(O)c2)oc2cc(O)cc(O)c12 [Luteolin] | 
6 | little or no activity | activate ERβ | O=C1C[C@@H](c2ccc(O)cc2)Oc2cc(O)cc(O)c21 [Naringenin] | 
7 | little or no activity | activate ERβ | C=C[C@H](/C=C\c1ccc(O)cc1)c1ccc(O)cc1 [Nyasol] | Activation of ERα (NKG2E ERE luciferase activity) ([1]; 1 μM): activate ERα; Breast cancer tumor formation ([4]; listed as IATERB5): do not increase uterine weight or cause breast cancer tumor formation; also recorded: do not increase uterine breast cancer tumor formation; Uterine weight [5]: do not increase uterine weight
8 | little or no activity |  | COc1c(O)cc(O)c2c(=O)cc(-c3ccccc3)oc12 [Wogonin] | 

Second part, the compound before the results:

Row | Compound | Activity in ERα U2OS cells [1] | Activation of ERβ (NKG2E-TK-Luc luciferase activity) [2] | other results
9 | O=c1c(O)c(-c2ccc(O)cc2)oc2ccccc12 [3,4′-Dihydroxyflavone] | little or no activity |  | 
10 | O=c1cc(-c2ccc(O)cc2)oc2cccc(O)c12 [5,4′-Dihydroxyflavone] | little or no activity | activate ERβ | 
11 | O=c1cc(-c2ccc(O)cc2)oc2ccc(O)cc12 [6,4′-Dihydroxyflavone] | little or no activity | activate ERβ | Activation of ERα (NKG2E ERE luciferase activity) ([1]; 1 μM): activate ERα
12 | COc1c(O)cc2oc(-c3ccc(O)c(O)c3)cc(=O)c2c1O [6-methoxyluteolin] | little or no activity |  | 
13 | O=c1cc(-c2ccccc2O)oc2cc(O)ccc12 [7,2′-Dihydroxyflavone] | little or no activity |  | 
14 | O=c1cc(-c2cccc(O)c2)oc2cc(O)ccc12 [7,3′-Dihydroxyflavone] | little or no activity |  | 
15 | O=c1cc(-c2ccc(O)cc2)oc2cc(O)ccc12 [7,4′-Dihydroxyflavone] | little or no activity | activate ERβ | Activation of ERα (NKG2E ERE luciferase activity) ([1]; 5 μM): activate ERα
16 | O=C(/C=C/c1cccc(O)c1)c1ccc(O)c(O)c1O [A10, (E)-3-(3-hydroxyphenyl)-1-(2,3,4-trihydroxyphenyl) prop-2-en-1-one] |  |  | Effect on hydrocortisone (HC) induced luciferase activity [3]: attenuated the effect of HC
17 | O=C(/C=C/c1ccc(O)cc1)c1ccccc1 [A15, (E)-3-(4-hydroxyphenyl)-1-phenylprop-2-en-1-one] |  |  | Effect on hydrocortisone (HC) induced luciferase activity [3]: attenuated the effect of HC
18 | O=C(/C=C/c1ccc(O)cc1)c1ccc(O)cc1 [Analog 13, (E)-1,3-bis(4-hydroxyphenyl) prop-2-en-1-one] |  | activate ERβ | Activation of ERα (NKG2E ERE luciferase activity) ([1]; 5 μM): activate ERα; Effect on hydrocortisone (HC) induced luciferase activity [3]: attenuated the effect of HC
19 | O=C1C[C@@H](c2ccc(O)cc2)Oc2cc(O)ccc21 [Liquiritigenin] | little or no activity |  | Activation of ERα (NKG2E ERE luciferase activity) ([1]; 5 μM): activate ERα; Breast cancer tumor formation ([4]; listed as IATERB7): do not increase uterine weight or cause breast cancer tumor formation; also recorded: do not increase uterine breast cancer tumor formation; Effect on hydrocortisone (HC) induced luciferase activity [3]: attenuated the effect of HC; Uterine weight [5]: do not increase uterine weight
20 | Broussonin A | little or no activity |  | Activation of ERα (NKG2E ERE luciferase activity) ([1]; 1 μM): activate ERα
